Assay results reported in US6461997B1, “Triazole sulfones having herbicidal activity” (Monsanto Technology LLC, priority 1999, dated 2002).

test system: CIRAR (canada thistle (seedling)); experiment: Pre-plant incorporated (PPI) herbicidal activity, warm season; assay type: in vivo, Cirsium arvense; conditions: GR80 = lowest tested rate with 80% or greater inhibition, approx. 14 days after treating, 30/21° C.
Description: (§1) In another set of tests, the pre-plant incorporated (PPI) activity of compounds of this invention was evaluated on the same species as for the pre-emergence tests described above. In the PPI tests the following procedure, designed to simulate PPI application, was used.
(§2) A pre-prepared topsoil mixture (described above) was placed in a pot and compacted to a depth of 1.0 to 1.25 cm from the top of the pot. Seeds of each of several monocotyledonous and dicotyledonous annual plant species were placed on top of the soil. A sufficient quantity of soil to cover the seeds and level fill the pot was weighed into an open container. A known amount of the test compound was dissolved or suspended in an organic solvent and applied by spraying to this cover soil. The cover soil was thoroughly mixed to distribute the test compound throughout the cover soil, and was then applied as a cover layer over the seeds. Untreated soil was used as a cover layer for control pots. After treatment the plants were placed in a greenhouse where they received 0.64 cm of overhead irrigation. All subsequent watering consisted of a light overhead mist and/or subirrigation as needed for germination and growth. Tables 9 and 10 below relate to warm season plant species which were placed after pre-emergence treatment in a greenhouse with a 30/21° C. day/night temperature regime. Tables 11 and 12 below relates to cool season plant species placed after pre-emergence treatment in a greenhouse or growth chamber with an 18/13° C. day/night temperature regime. Only the compounds of Examples 1, 6, 8, 11, 13 and 15-20 were included in PPI tests.
(§3) Approximately 14 days after planting and treating, the plants were observed and herbicidal efficacy recorded as percent inhibition by comparison with untreated plants.

Row | Structure (SMILES) | PPI activity (GR80) CIRAR [g/ha]
1 | CCN(CC)C(=O)n1cnc(S(=O)(=O)C(F)(F)C(F)F)n1 [Example 16] | 30

test system: CONAR (field bindweed); experiment: Pre-emergence herbicidal activity, warm season; assay type: in vivo, Convolvulus arvensis; conditions: GR80 = lowest tested rate (300, 100, 30, 10 g/ha) with 80% or greater inhibition; approx. 14 days after treating; 30/21° C.
Summary of the method: (§4)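 Seeds sown in sterilised fertilised topsoil received surface-applied compound in 50:50 acetone/water, typically at 300, 100, 30 and 10 g/ha, then greenhouse-grown at 30/21° C (warm-season species) or 18/13° C (cool-season species). Percent inhibition versus untreated plants was scored at about 14 days, giving GR80; an asterisk marks activity short of 80% at the top rate.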

Row | Structure (SMILES) | Pre-emergence activity (GR80) CONAR [g/ha]
2 | CCN(CC)C(=O)n1cnc(S(=O)(=O)C(F)(F)C(F)F)n1 [Example 16] | 300

test system: LOLMG (annual ryegrass); experiment: Pre-emergence herbicidal activity, cool season; assay type: in vivo, Lolium multiflorum; conditions: GR80 = lowest tested rate (300, 100, 30, 10 g/ha) with 80% or greater inhibition; approx. 14 days after treating; 18/13° C.
Summary of the method: as §4

Row | Structure (SMILES) | Pre-emergence activity (GR80) LOLMG [g/ha]
3 | CCN(CC)C(=O)n1cnc(S(=O)(=O)C(F)(F)C(F)F)n1 [Example 16] | 300

test system: KCHSC (kochia); experiment: Pre-plant incorporated (PPI) herbicidal activity, cool season; assay type: in vivo, Kochia scoparia; conditions: pre-plant incorporated; lowest tested rate with 80% or greater inhibition; about 14 days
Description: as §1, §2, §3

Row | Structure (SMILES) | PPI activity GR80, KCHSC [g/ha]
4 | CCN(CC)C(=O)n1cnc(S(=O)(=O)C(F)(F)C(F)F)n1 [Example 16] | 30

test system: SASKR (russian thistle); experiment: as above; assay type: in vivo, Salsola kali; conditions: pre-plant incorporated; lowest tested rate with 80% or greater inhibition; about 14 days
Description: as §1, §2, §3

Row | Structure (SMILES) | PPI activity GR80, SASKR [g/ha]
5 | CCN(CC)C(=O)n1cnc(S(=O)(=O)C(F)(F)C(F)F)n1 [Example 16] | 30

same assay, conditions: weed, PPI application, 10 g/ha

Row | Structure (SMILES) | Percent inhibition SASKR [%]
6 | CCN(CC)C(=O)n1cnc(S(=O)(=O)C(F)(F)C(F)F)n1 [Example 16] | 65

same assay, conditions: weed, PPI application, 30 g/ha

Row | Structure (SMILES) | Percent inhibition SASKR [%]
7 | CCN(CC)C(=O)n1cnc(S(=O)(=O)C(F)(F)C(F)F)n1 [Example 16] | 90

same assay, conditions: weed, PPI application, 100 g/ha

Row | Structure (SMILES) | Percent inhibition SASKR [%]
8 | CCN(CC)C(=O)n1cnc(S(=O)(=O)C(F)(F)C(F)F)n1 [Example 16] | 80

same assay, conditions: weed, PPI application, 300 g/ha

Row | Structure (SMILES) | Percent inhibition SASKR [%]
9 | CCN(CC)C(=O)n1cnc(S(=O)(=O)C(F)(F)C(F)F)n1 [Example 16] | 80

same assay, conditions: weed, PPI application, 900 g/ha

Row | Structure (SMILES) | Percent inhibition SASKR [%]
10 | CCN(CC)C(=O)n1cnc(S(=O)(=O)C(F)(F)C(F)F)n1 [Example 16] | 100

test system: CONAR (field bindweed); experiment: Pre-plant incorporated (PPI) herbicidal activity, warm season; assay type: in vivo, Convolvulus arvensis; conditions: GR80 = lowest tested rate with 80% or greater inhibition, approx. 14 days after treating, 30/21° C.
Description: as §1, §2, §3

Row | Structure (SMILES) | PPI activity (GR80) CONAR [g/ha]
11 | CCN(CC)C(=O)n1cnc(S(=O)(=O)C(F)(F)C(F)F)n1 [Example 16] | 100

test system: POROL (common purslane); experiment: as above; assay type: in vivo, Portulaca oleracea; conditions: GR80 = lowest tested rate with 80% or greater inhibition, approx. 14 days after treating, 30/21° C.
Description: as §1, §2, §3

Row | Structure (SMILES) | PPI activity (GR80) POROL [g/ha]
12 | CCN(CC)C(=O)n1cnc(S(=O)(=O)C(F)(F)C(F)F)n1 [Example 16] | 10

test system: ABUTH (velvetleaf); experiment: Pre-emergence herbicidal activity, warm season; assay type: in vivo, Abutilon theophrasti; conditions: GR80 = lowest tested rate (300, 100, 30, 10 g/ha) with 80% or greater inhibition; approx. 14 days after treating; 30/21° C.
Summary of the method: as §4

Row | Structure (SMILES) | Pre-emergence activity (GR80) ABUTH [g/ha]
13 | CCN(CC)C(=O)n1cnc(S(=O)(=O)C(F)(F)C(F)F)n1 [Example 16] | 300

test system: IPOSS (annual morningglory); experiment: Pre-plant incorporated (PPI) herbicidal activity, warm season; assay type: in vivo, Ipomoea spp.; conditions: PPI application, 10 g/ha
Description: as §1, §2, §3

Row | Structure (SMILES) | Percent inhibition IPOSS [%]
14 | CCN(CC)C(=O)n1cnc(S(=O)(=O)C(F)(F)C(F)F)n1 [Example 16] | 0

same assay, conditions: PPI application, 30 g/ha

Row | Structure (SMILES) | Percent inhibition IPOSS [%]
15 | CCN(CC)C(=O)n1cnc(S(=O)(=O)C(F)(F)C(F)F)n1 [Example 16] | 0

same assay, conditions: PPI application, 100 g/ha

Row | Structure (SMILES) | Percent inhibition IPOSS [%]
16 | CCN(CC)C(=O)n1cnc(S(=O)(=O)C(F)(F)C(F)F)n1 [Example 16] | 0

same assay, conditions: PPI application, 300 g/ha

Row | Structure (SMILES) | Percent inhibition IPOSS [%]
17 | CCN(CC)C(=O)n1cnc(S(=O)(=O)C(F)(F)C(F)F)n1 [Example 16] | 0

same assay, conditions: PPI application, 900 g/ha

Row | Structure (SMILES) | Percent inhibition IPOSS [%]
18 | CCN(CC)C(=O)n1cnc(S(=O)(=O)C(F)(F)C(F)F)n1 [Example 16] | 50

test system: DATST (jimsonweed); experiment: Pre-emergence herbicidal activity, warm season; assay type: in vivo, Datura stramonium; conditions: GR80 = lowest tested rate (300, 100, 30, 10 g/ha) with 80% or greater inhibition; approx. 14 days after treating; 30/21° C.
Summary of the method: as §4

Row | Structure (SMILES) | Pre-emergence activity (GR80) DATST [g/ha]
19 | CCN(CC)C(=O)n1cnc(S(=O)(=O)C(F)(F)C(F)F)n1 [Example 16] | 300

test system: AGRRE (quackgrass (seedling)); experiment: Pre-emergence herbicidal activity, cool season; assay type: in vivo, Elymus repens; conditions: GR80 = lowest tested rate (300, 100, 30, 10 g/ha) with 80% or greater inhibition; approx. 14 days after treating; 18/13° C.
Summary of the method: as §4

Row | Structure (SMILES) | Pre-emergence activity (GR80) AGRRE
20 | CCN(CC)C(=O)n1cnc(S(=O)(=O)C(F)(F)C(F)F)n1 [Example 16] | * (activity observed, at least at highest rate, but <80% inhibition)

test system: AVEFA (wild oat); experiment: Pre-emergence herbicidal activity, cool season; assay type: in vivo, Avena fatua; conditions: GR80 = lowest tested rate (300, 100, 30, 10 g/ha) with 80% or greater inhibition; approx. 14 days after treating; 18/13° C.
Summary of the method: as §4

Row | Structure (SMILES) | Pre-emergence activity (GR80) AVEFA [g/ha]
21 | CCN(CC)C(=O)n1cnc(S(=O)(=O)C(F)(F)C(F)F)n1 [Example 16] | 300
